A word on the pEC50: it is −log10 of the EC50, conventionally taken in molar units.

Molecules are shown by their SMILES. pEC50: −log10 of the molar value. Structures can show the parent of a compound that is named as a salt.

For the assay, the target named is human activated kallikrein enzyme (Homo sapiens, UniProt P03952). Briefly: Inhibition of human activated kallikrein enzyme, fluorogenic peptide substrate assay (500 pM enzyme format). To be noted: 500 pM activated kallikrein, 300 μM PFR-AMC substrate, 30 min preincubation, 10 min reaction, room temperature; read-out: Primary Dose Response Assay: Average EC50. The class given is biochemical. On the procedure: Compounds were evaluated for inhibition of the human activated kallikrein enzyme in two formats of an assay employing a fluorogenic peptide substrate. In one assay format, the concentrations of reagents were as follows: 20 mM Tris pH 7.5, 1 mM EDTA, 150 mM sodium chloride, 0.1% PEG-400, 0.1% Triton X-100, 500 pM activated kallikrein enzyme, 300 μM Pro-Phe-Arg-7-amido-4-methylcoumarin (PFR-AMC) substrate. Prior to reaction initiation with substrate, enzyme and inhibitors were preincubated for 30 min at room temperature. After initiation with substrate, reactions were incubated for 10 min at room temperature and fluorescence emission at 460 nm from 380 nm excitation measured with a microplate reader. In another assay format, the concentrations of reagents were as follows: 20 mM Tris pH 7.5, 1 mM EDTA, 150 mM sodium chloride, 0.1% PEG-400, 0.1% Triton X-100, 5 pM activated kallikrein enzyme, 300 uM PFR-AMC substrate. Prior to reaction initiation with substrate, enzyme and inhibitors were preincubated for 30 min at room temperature. After initiation with substrate, reactions were incubated for 18 hr at room temperature and fluorescence emission at 460 nm from 380 nm excitation measured with a microplate reader.
Chain of human activated kallikrein enzyme (P03952 391-638 limits assumed): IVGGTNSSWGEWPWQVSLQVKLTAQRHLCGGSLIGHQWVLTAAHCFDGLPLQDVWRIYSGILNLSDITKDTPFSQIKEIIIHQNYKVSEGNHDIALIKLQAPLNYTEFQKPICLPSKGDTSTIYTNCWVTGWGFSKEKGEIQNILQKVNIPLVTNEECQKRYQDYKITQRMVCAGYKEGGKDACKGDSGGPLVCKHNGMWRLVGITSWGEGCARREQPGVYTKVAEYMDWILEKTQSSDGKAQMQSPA
Chain of human activated kallikrein enzyme (P03952 20-390 partner limits assumed): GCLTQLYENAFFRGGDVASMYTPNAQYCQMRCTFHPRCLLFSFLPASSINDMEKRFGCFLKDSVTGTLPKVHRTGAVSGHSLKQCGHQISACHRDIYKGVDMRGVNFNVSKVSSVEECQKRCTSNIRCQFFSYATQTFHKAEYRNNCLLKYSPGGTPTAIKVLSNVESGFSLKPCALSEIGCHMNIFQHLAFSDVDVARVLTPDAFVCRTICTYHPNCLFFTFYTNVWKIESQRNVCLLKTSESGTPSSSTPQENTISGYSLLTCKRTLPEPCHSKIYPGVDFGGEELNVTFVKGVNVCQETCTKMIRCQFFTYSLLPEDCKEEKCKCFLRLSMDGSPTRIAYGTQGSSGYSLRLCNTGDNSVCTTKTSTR
Table 1 provides the results of the assay in the format with 500 pM activated kallikrein assay. For the compounds listed in Table 1, the EC50 values are reported according to the following ranges: A≤5.0 nM; 5.0 nM<B≤50 nM; 50 nM<C≤500 nM; 500 nM<D≤9000 nM; 9000 nM<E.
Regarding `Cc1cc(CN)cc(C)c1CNc1cc(OCc2cn3cc(C4CC4)ccc3n2)ncn1` [Example 108, N-(4-(aminomethyl)-2,6-dimethylbenzyl)-6-((6-cyclopropylimidazo[1,2-a]pyridin-2-yl)methoxy)pyrimidin-4-amine], the pEC50 is at least 8.30. As for `O=C(NCc1ncn2ccc(Cl)cc12)c1cnnc(OCc2cn3cc(C4CC4)ccc3n2)c1` [Example 66, N-((7-chloroimidazo[1,5-a]pyridin-1-yl)methyl)-6-((6-cyclopropylimidazo[1,2-a]pyridin-2-yl)methoxy)pyridazine-4-carboxamide], the figure is 7.30 to 8.30. Take `Cc1cc(N)nc(C)c1CNc1cc(C(O)c2cn3cc(C4CC4)ccc3n2)ncn1` (centres unmarked) [Example 64, (6-(((6-amino-2,4-dimethylpyridin-3-yl)methyl)amino)pyrimidin-4-yl)(6-cyclopropylimidazo[1,2-a]pyridin-2-yl)methanol bisformic acid salt]: the pEC50 was 7.30 to 8.30. In the case of `O=C(/C=C/c1cccc(Cl)c1)Nc1cc(NCc2cn3cc(C4CC4)ccc3n2)ncn1` [Example 50, (E)-3-(3-chlorophenyl)-N-(6-(((6-cyclopropylimidazo[1,2-a]pyridin-2-yl)methyl)amino)pyrimidin-4-yl)acrylamide], the pEC50 is 7.30 to 8.30.

`O=C(Cc1ncn2ccc(Cl)cc12)Nc1cc(NCc2cn3cc(C4CC4)cc(CO)c3n2)ncn1` [Example 44, 2-(7-chloroimidazo[1,5-a]pyridin-1-yl)-N-(6-(((6-cyclopropyl-8-(hydroxymethyl)imidazo[1,2-a]pyridin-2-yl)methyl)amino)pyrimidin-4-yl)acetamide]: the pEC50 was at least 8.30.

For `O=C(Cc1cc2c(Cl)c[nH]c2cc1F)Nc1cc(NCc2cn3cc(C4CC4)ccc3n2)ccn1` [Example 132, 2-(3-chloro-6-fluoro-1H-indol-5-yl)-N-(4-(((6-cyclopropylimidazo[1,2-a]pyridin-2-yl)methyl)amino)pyridin-2-yl)acetamide], the pEC50 is 7.30 to 8.30. For the compound `O=C(Cc1ncn2ccc(Cl)cc12)Nc1ccnc(NCc2cn3cc(C4CC4)ccc3n2)n1` [Example 16, 2-(7-chloroimidazo[1,5-a]pyridin-1-yl)-N-(2-(((6-cyclopropylimidazo[1,2-a]pyridin-2-yl)methyl)amino)pyrimidin-4-yl)acetamide], the pEC50 is at least 8.30. For the compound `O=C(Cc1ncn2ccc(Cl)cc12)Nc1cncnc1NCc1cn2cc(C3CC3)ccc2n1` [Example 42, 2-(7-chloroimidazo[1,5-a]pyridin-1-yl)-N-(4-(((6-cyclopropylimidazo[1,2-a]pyridin-2-yl)methyl)amino)pyrimidin-5-yl)acetamide], the pEC50 is 6.30 to 7.30. With `O=C(CC1(c2cccc(Cl)c2)CC1)Nc1cc(NCc2cn3cc(C4CC4)ccc3n2)ccn1` [Example 126, 2-(1-(3-chlorophenyl)cyclopropyl)-N-(4-(((6-cyclopropylimidazo[1,2-a]pyridin-2-yl)methyl)amino)pyridin-2-yl)acetamide], the pEC50 is 5.05 to 6.30. In the case of `O=C(CCc1cccc(Cl)c1)Nc1cc(NCc2cn3cc(C4CC4)ccc3n2)ncn1` [Example 8, 3-(3-chlorophenyl)-N-(6-(((6-cyclopropylimidazo[1,2-a]pyridin-2-yl)methyl)amino)pyrimidin-4-yl)propanamide], the pEC50 is 5.05 to 6.30.

With `N#Cc1ccc(Cl)cc1CC(=O)Nc1cc(NCc2cn3cc(C4CC4)ccc3n2)ncn1` [Example 2, 2-(5-chloro-2-cyanophenyl)-N-(6-(((6-cyclopropylimidazo[1,2-a]pyridin-2-yl)methyl)amino)pyrimidin-4-yl)acetamide], the pEC50 was 5.05 to 6.30.

Regarding `CCCCCCOC(=O)NC(=N)c1cc(C)c(CNc2cc(OCc3cn4cc(C5CC5)ccc4n3)ncn2)c(C)c1` [Example 76, hexyl ((4-(((6-((6-cyclopropylimidazo[1,2-a]pyridin-2-yl)methoxy)pyrimidin-4-yl)amino)methyl)-3,5-dimethylphenyl)(imino)methyl)carbamate], the negative-log EC50 (pEC50) is 6.30 to 7.30. As for `CCOC(=O)c1nc(NCc2c(C)cc(C(=N)NO)cc2C)cc(OCc2cn3cc(C4CC4)ccc3n2)n1` [Example 81, ethyl 4-((6-cyclopropylimidazo[1,2-a]pyridin-2-yl)methoxy)-6-((4-(N-hydroxycarbamimidoyl)-2,6-dimethylbenzyl)amino)pyrimidine-2-carboxylate], the figure is 6.30 to 7.30; as for `O=C(Cc1ncn2ccc(Cl)cc12)Nc1cc(NCc2cn3c(F)c(C4CC4)ccc3n2)ncn1` [Example 46, 2-(7-chloroimidazo[1,5-a]pyridin-1-yl)-N-(6-(((6-cyclopropyl-5-fluoro-imidazo[1,2-a]pyridin-2-yl)methyl)amino)pyrimidin-4-yl)acetamide], at least 8.30; as for `O=C(Cn1c(=O)oc2ccc(Cl)cc21)Nc1cc(NCc2cn3cc(C4CC4)ccc3n2)ncn1` [Example 123, 2-(5-chloro-2-oxobenzo[d]oxazol-3 (2H)-yl)-N-(6-(((6-cyclopropylimidazo[1,2-a]pyridin-2-yl)methyl)amino)pyrimidin-4-yl)acetamide], 5.05 to 6.30. On to `CCOC(=O)c1nc(NCc2cn3cc(C4CC4)ccc3n2)cc(NC(=O)Cc2ncn3ccc(Cl)cc23)n1` [Example 20, ethyl 4-(2-(7-chloroimidazo[1,5-a]pyridin-1-yl)acetamido)-6-(((6-cyclopropylimidazo[1,2-a]pyridin-2-yl)methyl)amino)pyrimidine-2-carboxylate], for which the negative logarithm of the EC50 (pEC50) is at least 8.30. Take `COc1ccc(=O)n(CC(=O)Nc2cc(NCc3cn4cc(C5CC5)ccc4n3)ncn2)c1` [Example 121, N-(6-(((6-cyclopropylimidazo[1,2-a]pyridin-2-yl)methyl)amino)pyrimidin-4-yl)-2-(5-methoxy-2-oxopyridin-1 (2H)-yl)acetamide]: the pEC50 was under 5.05. As for `CC(=O)c1nc(NCc2cn3cc(C4CC4)ccc3n2)cc(NC(=O)Cc2ncn3ccc(Cl)cc23)n1` [Example 102, N-(2-acetyl-6-(((6-cyclopropylimidazo[1,2-a]pyridin-2-yl)methyl)amino)pyrimidin-4-yl)-2-(7-chloroimidazo[1,5-a]pyridin-1-yl)acetamide], the figure is at least 8.30; as for `COCCOc1nc(NCc2cn3cc(C4CC4)ccc3n2)cc(NC(=O)Cc2ncn3ccc(Cl)cc23)n1` [Example 100, 2-(7-chloroimidazo[1,5-a]pyridin-1-yl)-N-(6-(((6-cyclopropylimidazo[1,2-a]pyridin-2-yl)methyl)amino)-2-(2-methoxyethoxy)pyrimidin-4-yl)acetamide], 7.30 to 8.30. With `O[C@H]1C[C@H](c2cn3cc(C4CC4)ccc3n2)N(c2cc(NCc3cc4cc[nH]c4cc3F)ncn2)C1` [Example 140, (3S,5R)-5-(6-cyclopropylimidazo[1,2-a]pyridin-2-yl)-1-(6-(((6-fluoro-1H-indol-5-yl)methyl)amino)pyrimidin-4-yl)pyrrolidin-3-ol], the pEC50 is 5.05 to 6.30.

Regarding `Cc1cc(C(=N)N)cc(C)c1CNc1cc(OCc2cn3cc(Cl)ccc3n2)ncn1` [Example 69, 4-(((6-((6-chloroimidazo[1,2-a]pyridin-2-yl)methoxy)pyrimidin-4-yl)amino)methyl)-3,5-dimethylbenzimidamide formic acid salt], the pEC50 was at least 8.30. To `O=C(Cc1ncn2ccc(Cl)cc12)Nc1cncnc1NCc1cn2c(F)c(C3CC3)ccc2n1` [Example 43, 2-(7-chloroimidazo[1,5-a]pyridin-1-yl)-N-(4-(((6-cyclopropyl-5-fluoroimidazo[1,2-a]pyridin-2-yl)methyl)amino)pyrimidin-5-yl)acetamide] belongs 7.30 to 8.30; to `CC(Oc1cccc(Cl)c1)C(=O)Nc1cc(NCc2cn3cc(C4CC4)ccc3n2)ncn1` (centres unmarked) [Example 49, 2-(3-chlorophenoxy)-N-(6-(((6-cyclopropylimidazo[1,2-a]pyridin-2-yl)methyl)amino)pyrimidin-4-yl)propanamide formic acid salt], 5.05 to 6.30.

Consider `CCOC(=O)Cc1cc(C2CC2)cn2cc(COc3cc(NCc4c(C)cc(C(=N)N)cc4C)ncn3)nc12` [Example 94, ethyl 2-(2-((6-(4-carbamimidoyl-2,6-dimethylbenzylamino)pyrimidin-4-yloxy)methyl)-6-cyclopropylimidazo[1,2-a]pyridin-8-yl)acetate], for which the pEC50 was at least 8.30. With `O=C(COc1cc(Cl)ccc1-n1cnnn1)Nc1cc(NCc2cn3cc(C4CC4)ccc3n2)ccn1` [Example 116, 2-(5-chloro-2-(1H-tetrazol-1-yl)phenoxy)-N-(4-(((6-cyclopropylimidazo[1,2-a]pyridin-2-yl)methyl)amino)pyridin-2-yl)acetamide], the pEC50 was 7.30 to 8.30.

`O=C(Cc1cc(Cl)ccc1-n1cnnn1)Nc1cc(NCc2cn3cc(C4CC4)ccc3n2)ncn1` [Example 35, 2-(5-chloro-2-(1H-tetrazol-1-yl)phenyl)-N-(6-(((6-cyclopropylimidazo[1,2-a]pyridin-2-yl)methyl)amino)pyrimidin-4-yl)acetamide]: the pEC50 is 7.30 to 8.30.

These data come from patent US20240382482A1, “PLASMA KALLIKREIN INHIBITORS” (TAKEDA PHARMACEUTICAL COMPANY LIMITED, priority 2021, published 2024).
